We go through 24 molecules from patent US9580413B2, “Substituted pyrrolidines as ROS tyrosine kinase inhibitors” (NIPPON SHINYAKU CO., LTD., priority 2012, dated 2017).

Counter-ions that a name gives are not always drawn. Where only a bound is given, the exact number is not on record here.

As a reminder, the IC50 is the concentration that gives 50% inhibition.

For experiment [1], the target named is T1, ROS tyrosine kinase (Homo sapiens, UniProt P08922).
T1 construct: purchased Carna Biosciences, Inc
T1 sequence (P08922 28-2347): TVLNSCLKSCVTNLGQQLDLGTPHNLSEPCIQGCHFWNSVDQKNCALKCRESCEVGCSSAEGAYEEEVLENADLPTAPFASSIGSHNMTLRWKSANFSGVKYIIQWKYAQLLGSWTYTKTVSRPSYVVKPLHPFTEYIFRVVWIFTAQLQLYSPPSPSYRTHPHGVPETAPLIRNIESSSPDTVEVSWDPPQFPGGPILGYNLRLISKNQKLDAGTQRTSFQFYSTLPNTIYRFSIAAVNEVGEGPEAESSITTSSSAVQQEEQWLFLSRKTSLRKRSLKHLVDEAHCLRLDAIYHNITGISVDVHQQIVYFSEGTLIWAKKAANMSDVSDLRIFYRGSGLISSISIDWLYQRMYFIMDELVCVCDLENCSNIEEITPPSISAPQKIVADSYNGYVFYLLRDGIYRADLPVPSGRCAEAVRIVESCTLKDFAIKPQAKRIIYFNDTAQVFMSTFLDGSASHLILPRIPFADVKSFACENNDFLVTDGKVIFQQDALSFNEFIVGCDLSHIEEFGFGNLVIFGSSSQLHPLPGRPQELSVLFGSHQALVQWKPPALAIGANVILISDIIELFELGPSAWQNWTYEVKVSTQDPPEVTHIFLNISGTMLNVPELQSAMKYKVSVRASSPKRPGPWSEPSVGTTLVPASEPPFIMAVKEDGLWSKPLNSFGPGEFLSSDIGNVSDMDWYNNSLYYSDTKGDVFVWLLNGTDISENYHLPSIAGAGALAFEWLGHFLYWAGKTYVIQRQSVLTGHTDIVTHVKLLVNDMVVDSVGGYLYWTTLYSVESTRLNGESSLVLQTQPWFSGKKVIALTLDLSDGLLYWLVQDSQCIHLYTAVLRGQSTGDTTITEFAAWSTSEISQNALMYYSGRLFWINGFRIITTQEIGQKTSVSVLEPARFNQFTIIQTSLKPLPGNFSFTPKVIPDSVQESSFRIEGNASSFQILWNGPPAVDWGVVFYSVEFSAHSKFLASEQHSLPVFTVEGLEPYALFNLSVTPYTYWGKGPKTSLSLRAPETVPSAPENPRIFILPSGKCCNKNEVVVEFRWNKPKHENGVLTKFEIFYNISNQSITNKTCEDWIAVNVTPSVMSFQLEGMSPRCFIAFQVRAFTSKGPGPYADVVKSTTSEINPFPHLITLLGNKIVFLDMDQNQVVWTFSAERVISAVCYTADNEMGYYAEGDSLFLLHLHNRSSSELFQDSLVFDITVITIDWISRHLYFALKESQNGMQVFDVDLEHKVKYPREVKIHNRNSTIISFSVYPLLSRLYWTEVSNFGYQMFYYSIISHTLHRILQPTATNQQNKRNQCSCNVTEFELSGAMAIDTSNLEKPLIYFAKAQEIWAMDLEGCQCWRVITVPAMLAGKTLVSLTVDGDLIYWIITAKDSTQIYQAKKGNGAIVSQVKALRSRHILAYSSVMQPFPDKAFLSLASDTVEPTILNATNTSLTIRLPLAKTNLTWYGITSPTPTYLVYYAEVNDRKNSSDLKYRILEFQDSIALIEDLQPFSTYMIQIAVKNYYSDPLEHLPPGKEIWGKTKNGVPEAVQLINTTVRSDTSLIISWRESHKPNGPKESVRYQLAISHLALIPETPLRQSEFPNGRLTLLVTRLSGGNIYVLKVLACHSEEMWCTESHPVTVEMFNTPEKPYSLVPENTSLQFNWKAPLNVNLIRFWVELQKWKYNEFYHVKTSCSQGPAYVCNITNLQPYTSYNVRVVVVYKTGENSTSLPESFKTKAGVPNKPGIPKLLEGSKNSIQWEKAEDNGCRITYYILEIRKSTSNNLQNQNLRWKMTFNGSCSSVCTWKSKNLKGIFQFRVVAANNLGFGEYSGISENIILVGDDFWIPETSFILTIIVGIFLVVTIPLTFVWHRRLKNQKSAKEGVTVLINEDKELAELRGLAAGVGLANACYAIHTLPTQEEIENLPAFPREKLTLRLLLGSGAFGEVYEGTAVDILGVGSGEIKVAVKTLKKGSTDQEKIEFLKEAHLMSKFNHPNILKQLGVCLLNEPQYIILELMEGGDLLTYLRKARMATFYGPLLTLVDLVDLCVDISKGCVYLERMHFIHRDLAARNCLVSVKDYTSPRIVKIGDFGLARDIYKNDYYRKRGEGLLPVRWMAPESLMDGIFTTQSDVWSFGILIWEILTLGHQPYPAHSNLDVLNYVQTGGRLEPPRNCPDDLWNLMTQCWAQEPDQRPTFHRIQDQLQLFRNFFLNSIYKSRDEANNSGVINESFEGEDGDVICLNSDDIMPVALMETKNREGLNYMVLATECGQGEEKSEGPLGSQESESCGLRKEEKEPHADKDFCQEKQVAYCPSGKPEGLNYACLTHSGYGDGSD
The experiment is described as follows: ROS tyrosine kinase inhibitory activity test (ELISA). To be noted: 25 μM ATP substrate solution, 30° C., one hour. The class given is biochemical, humans. Here is the method: (§1) 1. Preparation of Test Substance:
(§2) A test substance was dissolved in dimethyl sulfoxide (DMSO) to 10 mM and further diluted with DMSO to concentrations of 100-fold of the concentrations to be measured (100, 10, 1, 0.1, and 0.01 μM). Furthermore, the resultant was diluted with an assay buffer to 20-fold, thereby preparing a solution as a test substance solution. A solution prepared by diluting DMSO with an assay buffer to 20-fold was used as a negative control. A buffer containing 15 mM Tris-Cl (pH 7.5), 0.01 (v/v) % Tween-20, and 1 mM dithiothreitol was used as the assay buffer.
(§3) 2. Measurement of ROS Tyrosine Kinase Activity and JAK2 Tyrosine Kinase Activity:
(§4) The activity was measured by adopting the ELISA method. […] Finally, an ROS kinase or a JAK2 kinase (derived from humans, Carna Biosciences, Inc.) (diluted with the assay buffer to 0.25 nM) was added to the plate at 20 μL per well, and the resulting mixture was stirred. A reaction was performed at 30° C. for one hour. After the plate was washed 4 times with a washing buffer (50 mM Tris-Cl (pH 7.5), 150 mM NaCl, and 0.02 (v/v) % Tween-20), a blocking buffer (0.1% bovine serum albumin, 50 mM Tris-Cl (pH 7.5), 150 mM NaCl, and 0.02 (v/v) % Tween-20) was added to the plate at 150 μL per well, and incubated at 30° C. for 30 minutes. The blocking buffer was then removed, and a horse radish peroxidase-labeled anti-phosphorylated tyrosine antibody (BD Biosciences, Inc.) (diluted with the blocking buffer to 10,000-fold) was added to the plate at 100 μL per well, and the plate was incubated at 30° C. for 30 minutes. After the plate was washed 4 times with the washing buffer, a 3,3′,5,5′-tetramethylbenzidine solution (Sigma-Aldrich Co., Ltd.) was added to the plate at 100 μL per well to develop the color for 10 minutes. The reaction was stopped by adding 0.1 M sulfuric acid at 100 μL per well. An absorbance at 450 nm was measured with a microplate reader (Model 3550, manufactured by BIO-RAD, Benchmark, manufactured by BIO-RAD, or iMARK, manufactured by BIO-RAD).
(§5) 3. Analysis of Measurement Results:
(§6) A non-linear regression analysis was performed for the measured absorbance with an SAS system (SAS Institute Inc.), and a concentration of each of the test substances of inhibiting the ROS tyrosine kinase activity or JAK2 tyrosine kinase activity at 50% (IC50) was calculated. The inhibitory activity (IC50, nM) of each of the test substances against the ROS tyrosine kinase or JAK2 tyrosine kinase is shown in Tables 6 to 8.
On the technique in general: In an ELISA, binding on a coated surface is turned into a signal by an enzyme label.

For experiment [2], the target named is T2, JAK2 tyrosine kinase (Homo sapiens, UniProt O60674).
T2 construct: purchased Carna Biosciences, Inc
T2 sequence (O60674 whole entry): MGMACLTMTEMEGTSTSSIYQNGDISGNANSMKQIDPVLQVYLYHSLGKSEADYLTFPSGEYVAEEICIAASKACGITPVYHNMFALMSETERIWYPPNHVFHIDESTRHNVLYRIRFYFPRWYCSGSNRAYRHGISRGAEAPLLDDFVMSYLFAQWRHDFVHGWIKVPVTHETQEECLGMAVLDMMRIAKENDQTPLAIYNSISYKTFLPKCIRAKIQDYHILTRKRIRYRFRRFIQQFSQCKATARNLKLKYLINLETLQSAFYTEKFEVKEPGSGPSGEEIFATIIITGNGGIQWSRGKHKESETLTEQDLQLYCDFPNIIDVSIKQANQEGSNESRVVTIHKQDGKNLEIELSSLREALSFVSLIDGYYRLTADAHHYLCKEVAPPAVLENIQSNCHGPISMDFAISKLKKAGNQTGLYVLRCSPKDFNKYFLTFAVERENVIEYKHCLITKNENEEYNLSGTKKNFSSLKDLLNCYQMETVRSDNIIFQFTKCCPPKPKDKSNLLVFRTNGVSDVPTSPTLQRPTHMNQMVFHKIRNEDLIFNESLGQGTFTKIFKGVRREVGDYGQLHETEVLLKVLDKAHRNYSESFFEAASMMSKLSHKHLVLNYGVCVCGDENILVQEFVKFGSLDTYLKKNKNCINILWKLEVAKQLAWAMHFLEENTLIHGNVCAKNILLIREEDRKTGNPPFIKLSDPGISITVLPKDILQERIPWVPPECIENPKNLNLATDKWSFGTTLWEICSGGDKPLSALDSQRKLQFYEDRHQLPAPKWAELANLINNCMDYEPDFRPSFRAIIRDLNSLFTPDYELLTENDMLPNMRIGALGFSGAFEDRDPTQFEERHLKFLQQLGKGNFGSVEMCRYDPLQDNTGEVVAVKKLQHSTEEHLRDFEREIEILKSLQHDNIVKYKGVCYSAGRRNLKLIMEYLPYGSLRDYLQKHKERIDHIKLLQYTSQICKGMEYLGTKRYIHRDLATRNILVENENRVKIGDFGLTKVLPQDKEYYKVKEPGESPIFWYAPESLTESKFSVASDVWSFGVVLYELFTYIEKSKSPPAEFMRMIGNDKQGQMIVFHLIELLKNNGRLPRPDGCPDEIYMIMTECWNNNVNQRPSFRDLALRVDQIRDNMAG
Nature of the experiment: JAK2 tyrosine kinase inhibitory activity test (ELISA). The format is biochemical, humans. As to conditions: 25 μM ATP substrate solution, 30° C., one hour. Here is the method: as §1, §2, §3, §4, §5, §6

With `Cn1cc(-c2ncc(N3CCCC3c3ccc(F)cc3)nc2Nc2ncc(C#N)s2)cn1` (stereo not drawn) [Example 28, 2-({6-[2-(4-Fluorophenyl)pyrrolidin-1-yl]-3-(1-methyl-1H-pyrazol-4-yl)pyrazin-2-yl}amino)-1,3-thiazole-5-carbonitrile], the IC50 in experiment [1] is 51 nM; in experiment [2], above 1000 nM.

As for `Cc1ccc([C@@H]2CCCN2c2cnc(C)c(Nc3ncc(C#N)s3)n2)cc1` [Example 20, 2-({3-Methyl-6-[(2S)-2-(4-methylphenyl)pyrrolidin-1-yl]pyrazin-2-yl}amino)-1,3-thiazole-5-carbonitrile hydrochloride], the IC50 in experiment [1] was 1.1 nM; in experiment [2] it was 250 nM.

As for `COc1cc(C)ccc1C1CCCN1c1ncc(OC)c(Nc2ncc(C#N)s2)n1` (stereo not drawn) [Example 14, 2-({5-Methoxy-2-[2-(2-methoxy-4-methylphenyl)pyrrolidin-1-yl]pyrimidin-4-yl}amino)-1,3-thiazole-5-carbonitrile], the figures for the IC50 in experiment [1] and in experiment [2] were 2.5 nM and 350 nM, respectively.

For the molecule `COc1c(Nc2ncc(C#N)s2)nc(N2CCCC2c2ccc(C)cc2)nc1-c1cccnc1F` (stereo not drawn) [Example 49, 2-({6-(2-Fluoropyridin-3-yl)-5-methoxy-2-[2-(4-methylphenyl)pyrrolidin-1-yl]pyrimidin-4-yl}amino)-1,3-thiazole-5-carbonitrile], the IC50 is 52 nM in experiment [1] and above 1000 nM in experiment [2].

Take `COc1c(Nc2ncc(C#N)s2)nc(N2CCC[C@H]2c2ccc(C)cc2)nc1-c1cnn(C)c1` [Example 10, 2-({5-Methoxy-2-[(2S)-2-(4-methylphenyl)pyrrolidin-1-yl]-6-(l-methyl-1H-pyrazol-4-yl)pyrimidin-4-yl}amino)-1,3-thiazole-5-carbonitrile]: the IC50 in experiment [1] is 1.1 nM; in experiment [2], 260 nM.

Consider `Cc1ccc(C2CCCN2c2nc(Nc3ncc(C#N)s3)c(C)c(-c3ccc(O)nc3)n2)cc1` (stereo not drawn) [Example 16, 2-({6-(6-Hydroxypyridin-3-yl)-5-methyl-2-[2-(4-methylphenyl)pyrrolidin-1-yl]pyrimidin-4-yl}amino)-1,3-thiazole-5-carbonitrile], for which the IC50 in experiment [1] stood at 1.5 nM; in experiment [2], 36 nM.

Turning to `Cc1cc(-c2ncc(N3CCCC3c3ccc(F)cc3)nc2Nc2ncc(C#N)s2)ccn1` (stereo not drawn) [Example 53, 2-({6-[2-(4-Fluorophenyl)pyrrolidin-1-yl]-3-(2-methylpyridin-4-yl)pyrazin-2-yl}amino)-1,3-thiazole-5-carbonitrile], the IC50 is 67 nM in experiment [1] and above 1000 nM in experiment [2].

For `Cc1ccccc1C1CCCN1c1cncc(Nc2ncc(C#N)s2)n1` (stereo not drawn) [Example 47, 2-({6-[2-(2-Methylphenyl)pyrrolidin-1-yl]pyrazin-2-yl}amino)-1,3-thiazole-5-carbonitrile], the figures for the IC50 in experiment [1] and in experiment [2] were 17 nM and 280 nM, respectively.

For `COc1cc(C)ccc1C1CCCN1c1cnc(C2CC2)c(Nc2ncc(C#N)s2)n1` (stereo not drawn) [Example 23, 2-({3-Cyclopropyl-6-[2-(2-methoxy-4-methylphenyl)pyrrolidin-1-yl]pyrazin-2-yl}amino)-1,3-thiazole-5-carbonitrile], the IC50 in experiment [1] is 8.8 nM; in experiment [2], above 1000 nM.

Regarding `COc1c(Nc2ncc(C#N)s2)nc(N2CCCC2c2ccc(C)cc2)nc1-c1cncnc1` (stereo not drawn) [Example 3, 2-({5-Methoxy-2-[2-(4-methylphenyl)pyrrolidin-1-yl]-4,5′-bipyrimidin-6-yl}amino)-1,3-thiazole-5-carbonitrile], the IC50 was 8.6 nM in experiment [1] and above 1000 nM in experiment [2].

Regarding `Cc1cccc(C2CCCN2c2cncc(Nc3ncc(C#N)s3)n2)c1` (stereo not drawn) [Example 46, 2-({6-[2-(3-Methylphenyl)pyrrolidin-1-yl]pyrazin-2-yl}amino)-1,3-thiazole-5-carbonitrile], the IC50 in experiment [1] was 6.4 nM; in experiment [2] it was 280 nM.

In the case of `Cc1ncc(N2CCCC2c2ccc(F)cc2)nc1Nc1ncc(C#N)s1` (stereo not drawn) [Example 41, 2-({6-[2-(4-Fluorophenyl)pyrrolidin-1-yl]-3-methylpyrazin-2-yl}amino)-1,3-thiazole-5-carbonitrile], the IC50 is 0.71 nM in experiment [1] and 21 nM in experiment [2].

On to `COc1ccc(C2CCCN2c2cncc(Nc3ncc(C#N)s3)n2)cc1` (stereo not drawn) [Example 37, 2-({6-[2-(4-Methoxyphenyl)pyrrolidin-1-yl]pyrazin-2-yl}amino)-1,3-thiazole-5-carbonitrile], for which the values for the IC50 in experiment [1] and in experiment [2] were 13 nM and 560 nM, respectively.

As for `N#Cc1cnc(Nc2nc(N3CCCC3c3ccc(F)cc3)cnc2-c2cncnc2)s1` (stereo not drawn) [Example 22, 2-({6-[2-(4-Fluorophenyl)pyrrolidin-1-yl]-3-(pyrimidin-5-yl)pyrazin-2-yl}amino)-1,3-thiazole-5-carbonitrile], the IC50 in experiment [1] was 47 nM; in experiment [2], above 1000 nM.

`Cc1ccc(C2CCCN2c2nc(C)c(Br)c(Nc3ncc(C#N)s3)n2)cc1` (stereo not drawn) [Example 17, 2-({5-Bromo-6-methyl-2-[2-(4-methylphenyl)pyrrolidin-1-yl]pyrimidin-4-yl}amino)-1,3-thiazole-5-carbonitrile]: the IC50 in experiment [1] is 39 nM; in experiment [2], above 1000 nM.

For the molecule `COc1c(Nc2ncc(C#N)s2)nc(N2CCCC2c2ccc(C)cc2)nc1C1CC1` (stereo not drawn) [Example 18, 2-({6-Cyclopropyl-5-methoxy-2-[2-(4-methylphenyl)pyrrolidin-1-yl]pyrimidin-4-yl}amino)-1,3-thiazole-5-carbonitrile], the IC50 in experiment [1] is 120 nM; in experiment [2], above 1000 nM.

On to `N#Cc1cnc(Nc2nc(N3CCCC3c3ccc(F)cc3)cnc2-c2cnco2)s1` (stereo not drawn) [Example 21, 2-({6-[2-(4-Fluorophenyl)pyrrolidin-1-yl]-3-(1,3-oxazol-5-yl)pyrazin-2-yl}amino)-1,3-thiazole-5-carbonitrile], for which the IC50 was 13 nM in experiment [1] and above 1000 nM in experiment [2].

With `COc1cc(C2CCCN2c2cncc(Nc3ncc(C#N)s3)n2)ccc1C` (stereo not drawn) [Example 33, 2-({6-[2-(3-Methoxy-4-methylphenyl)pyrrolidin-1-yl]pyrazin-2-yl}amino)-1,3-thiazole-5-carbonitrile], the IC50 in experiment [1] is 2.2 nM; in experiment [2], 190 nM.

Turning to `Cc1ccc([C@@H]2CCCN2c2cnc(C3CC3)c(Nc3ncc(C#N)s3)n2)cc1` [Example 35, 2-({3-Cyclopropyl-6-[(2S)-2-(4-methylphenyl)pyrrolidin-1-yl]pyrazin-2-yl}amino)-1,3-thiazole-5-carbonitrile], the half-inhibitory concentration (IC50) in experiment [1] is 2.9 nM; in experiment [2] it was above 1000 nM.

For `COCCn1cc(-c2nc(N3CCC[C@H]3c3ccc(C)cc3)nc(Nc3ncc(C#N)s3)c2OC)cn1` [Example 58, 2-({5-Methoxy-6-[1-(2-methoxyethyl)-1H-pyrazol-4-yl]-2-[(2S)-2-(4-methylphenyl)pyrrolidin-1-yl]pyrimidin-4-yl}amino)-1,3-thiazole-5-carbonitrile], the IC50 was determined as 2.2 nM in experiment [1] and 240 nM in experiment [2].

As to `COc1cc(C)ccc1C1CCCN1c1cncc(Nc2ncc(C#N)s2)n1` (stereo not drawn) [Example 30, 2-({6-[2-(2-Methoxy-4-methylphenyl)pyrrolidin-1-yl]pyrazin-2-yl}amino)-1,3-thiazole-5-carbonitrile], the values for the IC50 in experiment [1] and in experiment [2] were 0.5 nM and 69 nM, respectively.

As for `Cc1ccc(C2CCCN2c2nc3c(c(Nc4ncc(C#N)s4)n2)CN(S(C)(=O)=O)CC3)cc1` (stereo not drawn) [Example 72, 2-({2-[2-(4-Methylphenyl)pyrrolidin-1-yl]-6-(methylsulfonyl)-5,6,7,8-tetrahydropyrido[4,3-d]pyrimidin-4-yl}amino)-1,3-thiazole-5-carbonitrile], the values for the IC50 in experiment [1] and in experiment [2] were 97 nM and above 1000 nM, respectively.

In the case of `COc1ccccc1C1CCCN1c1cnc(C2CC2)c(Nc2ncc(C#N)s2)n1` (stereo not drawn) [Example 24, 2-({3-Cyclopropyl-6-[2-(2-methoxyphenyl)pyrrolidin-1-yl]pyrazin-2-yl}amino)-1,3-thiazole-5-carbonitrile], the IC50 was 6.6 nM in experiment [1] and 210 nM in experiment [2].

As to `Cc1ccc([C@@H]2CCCN2c2cc(C(N)=O)c(C3CC3)c(Nc3ncc(C#N)s3)n2)cc1` [Example 66, 2-[(5-Cyano-1,3-thiazol-2-yl)amino]-3-cyclopropyl-6-[(2S)-2-(4-methylphenyl)pyrrolidin-1-yl]pyridine-4-carboxamide], the IC50 in experiment [1] turned out to be 0.84 nM; in experiment [2], 910 nM.
